Laboratory results: US10168342B2, “Lipid probes and uses thereof” (THE SCRIPPS RESEARCH INSTITUTE, priority 2015, dated 2019)
Like-named read-outs stand apart in the source and are kept apart here.

Tests used:
[1] = molecular target: T1, AEA-DA lipid probe targets in Neuro2a cells (Mus musculus, UniProt P09103)
T1 sequence (P09103 20-509): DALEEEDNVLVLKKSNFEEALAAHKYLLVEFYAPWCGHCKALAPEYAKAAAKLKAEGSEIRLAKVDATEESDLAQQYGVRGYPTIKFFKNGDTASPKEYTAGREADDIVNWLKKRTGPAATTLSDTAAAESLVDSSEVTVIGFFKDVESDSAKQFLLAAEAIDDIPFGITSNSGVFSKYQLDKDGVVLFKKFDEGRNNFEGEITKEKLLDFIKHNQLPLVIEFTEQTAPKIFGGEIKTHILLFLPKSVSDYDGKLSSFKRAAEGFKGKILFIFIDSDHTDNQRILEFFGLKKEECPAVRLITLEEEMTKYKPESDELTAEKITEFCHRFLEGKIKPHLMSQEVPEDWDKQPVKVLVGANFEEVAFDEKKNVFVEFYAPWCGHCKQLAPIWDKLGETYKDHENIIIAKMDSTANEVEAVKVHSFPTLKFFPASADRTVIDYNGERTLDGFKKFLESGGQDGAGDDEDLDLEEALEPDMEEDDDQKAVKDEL

[2] = molecular target: T2, AEA-DA lipid probe targets in Neuro2a cells (Mus musculus, UniProt Q61712); conditions: for SILAC ratio, DNAJC1 (Q96KC8): Neuro2a cells, AEA-DA probe
T2 sequence (Q61712 44-552): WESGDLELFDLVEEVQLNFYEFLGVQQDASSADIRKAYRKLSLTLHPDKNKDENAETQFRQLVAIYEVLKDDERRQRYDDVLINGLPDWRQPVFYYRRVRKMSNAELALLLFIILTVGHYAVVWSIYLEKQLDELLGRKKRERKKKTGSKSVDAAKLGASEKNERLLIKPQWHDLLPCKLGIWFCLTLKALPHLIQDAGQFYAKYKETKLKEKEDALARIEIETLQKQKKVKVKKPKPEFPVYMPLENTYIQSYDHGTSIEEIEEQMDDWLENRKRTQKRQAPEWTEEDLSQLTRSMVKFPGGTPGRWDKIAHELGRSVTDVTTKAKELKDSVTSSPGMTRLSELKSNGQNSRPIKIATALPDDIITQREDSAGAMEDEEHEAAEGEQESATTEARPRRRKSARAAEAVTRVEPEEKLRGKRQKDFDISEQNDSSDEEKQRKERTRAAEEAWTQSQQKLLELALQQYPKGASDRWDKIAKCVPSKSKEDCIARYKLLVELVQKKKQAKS

[3] = molecular target: AEA-DA lipid probe targets in Neuro2a cells (Mus musculus, UniProt Q9D880)
[4] = molecular target: AEA-DA lipid probe targets in Neuro2a cells (Mus musculus, UniProt Q9DBC7)
[5] = molecular target: T3, AEA-DA lipid probe targets in Neuro2a cells (Mus musculus, UniProt Q9EQI8)
T3 sequence (Q9EQI8 1-283): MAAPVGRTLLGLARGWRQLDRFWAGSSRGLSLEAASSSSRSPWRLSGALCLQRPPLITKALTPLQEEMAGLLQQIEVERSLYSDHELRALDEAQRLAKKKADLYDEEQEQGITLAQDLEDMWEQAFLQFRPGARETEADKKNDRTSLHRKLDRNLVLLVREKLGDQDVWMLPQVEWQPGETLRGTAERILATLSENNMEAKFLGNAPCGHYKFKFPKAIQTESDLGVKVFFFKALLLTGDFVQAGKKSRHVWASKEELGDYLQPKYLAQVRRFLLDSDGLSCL

[6] = molecular target: T4, AEA-DA lipid probe targets in Neuro2a cells (Mus musculus, UniProt Q8JZN5)
T4 sequence (Q8JZN5 42-625): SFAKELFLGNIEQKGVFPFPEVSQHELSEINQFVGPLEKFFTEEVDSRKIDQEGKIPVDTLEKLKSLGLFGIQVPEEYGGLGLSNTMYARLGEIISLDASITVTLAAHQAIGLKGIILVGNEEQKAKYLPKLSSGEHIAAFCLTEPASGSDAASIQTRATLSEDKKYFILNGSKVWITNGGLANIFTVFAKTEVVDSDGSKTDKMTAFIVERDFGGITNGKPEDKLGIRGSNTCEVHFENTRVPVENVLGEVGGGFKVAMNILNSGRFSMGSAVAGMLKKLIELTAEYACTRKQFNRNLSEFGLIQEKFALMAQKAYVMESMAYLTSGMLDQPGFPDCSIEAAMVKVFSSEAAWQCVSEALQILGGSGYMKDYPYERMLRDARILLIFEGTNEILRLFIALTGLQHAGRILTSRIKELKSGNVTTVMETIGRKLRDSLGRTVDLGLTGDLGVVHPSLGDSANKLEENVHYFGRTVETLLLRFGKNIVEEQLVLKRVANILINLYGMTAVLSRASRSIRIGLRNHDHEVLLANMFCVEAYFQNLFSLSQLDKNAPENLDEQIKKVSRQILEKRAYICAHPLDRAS

Sequence of AEA-DA lipid probe targets in Neuro2a cells (Mus musculus, UniProt Q9D880) (Q9D880 22-353): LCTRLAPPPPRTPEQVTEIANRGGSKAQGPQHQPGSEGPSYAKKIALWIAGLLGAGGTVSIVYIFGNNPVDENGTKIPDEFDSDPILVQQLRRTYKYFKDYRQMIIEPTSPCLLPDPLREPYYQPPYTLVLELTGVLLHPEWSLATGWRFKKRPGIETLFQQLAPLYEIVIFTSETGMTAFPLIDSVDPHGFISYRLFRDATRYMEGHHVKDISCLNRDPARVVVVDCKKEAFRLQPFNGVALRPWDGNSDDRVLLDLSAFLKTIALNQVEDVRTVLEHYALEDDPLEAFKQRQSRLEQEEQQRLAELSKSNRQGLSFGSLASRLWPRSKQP
Sequence of AEA-DA lipid probe targets in Neuro2a cells (Mus musculus, UniProt Q9DBC7) (Q9DBC7 whole entry): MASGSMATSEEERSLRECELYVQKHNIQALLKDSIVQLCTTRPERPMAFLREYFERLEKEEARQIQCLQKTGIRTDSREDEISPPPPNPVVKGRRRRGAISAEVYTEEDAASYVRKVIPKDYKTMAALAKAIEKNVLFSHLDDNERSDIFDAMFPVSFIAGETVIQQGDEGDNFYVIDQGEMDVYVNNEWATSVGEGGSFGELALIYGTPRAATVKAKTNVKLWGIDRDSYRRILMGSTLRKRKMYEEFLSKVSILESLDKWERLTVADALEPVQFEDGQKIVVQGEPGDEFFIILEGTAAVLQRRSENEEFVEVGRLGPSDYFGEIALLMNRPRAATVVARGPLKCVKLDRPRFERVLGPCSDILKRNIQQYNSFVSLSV

| Compound | SILAC ratio P4hb ([1]; competitor 25 μM) | SILAC ratio, DNAJC1 (Q96KC8) ([2]; competitor 25 μM) | SILAC ratio, Dnajc1 ([2]; competitor 25 μM) | SILAC ratio Acad9 ([6]; competitor 25 μM) | SILAC ratio Timm50 ([3]; competitor 25 μM) | SILAC ratio, Prkar1a ([4]; competitor 25 μM) | SILAC ratio Mrpl46 ([5]; competitor 25 μM) | also measured |
| --- | --- | --- | --- | --- | --- | --- | --- | --- |
| CCCCC/C=C\C/C=C\C/C=C\C/C=C\CCCC(=O)NCCO [AEA, anandamide, reference compound] |  |  |  |  |  |  |  | SILAC ratio P4hb ([1]; competitor 200 μM): 1.2; SILAC ratio, DNAJC1 (Q96KC8) ([2]; competitor 200 μM): 2.1; SILAC ratio, Dnajc1 ([2]; competitor 200 μM): 2.1; SILAC ratio Timm50 ([3]; competitor 200 μM): 1.2; SILAC ratio, Prkar1a ([4]; competitor 200 μM): 1.2; SILAC ratio Mrpl46 ([5]; competitor 200 μM): 1.3 |
| O=C(/C=C/c1cccnc1)NCCCCC1CCN(C(=O)c2ccccc2)CC1 [FK-866, reference compound] | 1.4 | 1.4 | 1.4 | 1.2 | 1.1 | 1.5 | 1.3 |  |
| CN1CCN(C(=O)c2c(-c3ccccc3)c3cc([N+](=O)[O-])ccc3n2C)CC1 [KML110, (1-Methyl-5-nitro-3-phenyl-1H-indol-2-yl)(4-methylpiperazin-1-yl)methanone] | 1.8 |  |  | 1.7 | 1.1 | 1.6 | 1.3 |  |
| CN1CCN(C(=O)c2[nH]c3ccc([N+](=O)[O-])cc3c2-c2ccccc2)CC1 [MJN228, (4-Methylpiperazin-1-yl)(5-nitro-3-phenyl-1H-indol-2-yl)methanone] | 1.5 | 1.6 | 1.6 | 1.2 | 1.3 | 1.9 | 1.3 | SILAC ratio P4hb ([1]; competitor 10 μM): 1.3; SILAC ratio P4hb ([1]; competitor 50 μM): 2.0; SILAC ratio P4hb ([1]; competitor 100 μM): 2.2; SILAC ratio, Dnajc1 ([2]; competitor 10 μM): 1.0; SILAC ratio, Dnajc1 ([2]; competitor 50 μM): 1.5; SILAC ratio Acad9 ([6]; competitor 10 μM): 1.4; SILAC ratio Acad9 ([6]; competitor 50 μM): 1.4; SILAC ratio Acad9 ([6]; competitor 100 μM): 1.4; SILAC ratio Timm50 ([3]; competitor 10 μM): 1.2; SILAC ratio Timm50 ([3]; competitor 50 μM): 1.1; SILAC ratio Timm50 ([3]; competitor 100 μM): 1.2; SILAC ratio, Prkar1a ([4]; competitor 10 μM): 1.9; SILAC ratio, Prkar1a ([4]; competitor 50 μM): 2.1; SILAC ratio, Prkar1a ([4]; competitor 100 μM): 2.8; SILAC ratio Mrpl46 ([5]; competitor 10 μM): 1.0; SILAC ratio Mrpl46 ([5]; competitor 50 μM): 1.0; SILAC ratio Mrpl46 ([5]; competitor 100 μM): 1.3 |
| C=CCN(C)CCCCCCOc1ccc(C(=O)c2ccc(Br)cc2)c(F)c1 [Ro 48-8071, reference compound] | 1.0 | 1.2 | 1.2 | 1.3 | 0.9 | 1.0 | 0.9 |  |
